Data as given in patent US20030068385A1, “Accelerated action fatty acid (AAFA) promotes health of normal tissues and minimizes the toxic side effects of chemotherapy” (priority 2001, published 2003).
Where a name gives a salt, the structure may show the parent alone.

How the values were obtained:
Coat quality (Example 1) = format: in vivo; details: Swiss mice treated with CPT-11; compared with normal control group
Description: The group of mice that consumed the ‘normal’ diet containing 10% corn oil and 0% AAFA that were not treated with CPT-11 (normal control group) was compared to the groups of mice treated with CPT-11 that consumed each diet. […] Thus, the treatment helped return the animal grooming behavior closer to the normal untreated control group without CPT-11. This generally reflects that the animals were “feeling better”.

[1] = Body weight gain during CPT-11 treatment on AAFA diets (Example 1); format: in vivo; details: male Swiss mice; 0-3% AAFA diets; CPT-11 60 mg/kg IV once each four days for 2 weeks
Description: 40 male Swiss mice, 6 weeks old, were obtained and earmarked for unique identification. Mice were housed 5/cage in Laboratory Animal Resources facilities. After 24 hours acclimation, mice were weighed and the food was changed to one of four defined diets. The AIN-76 based, 10% total fat diets contained: 0% AAFA+10% corn oil, 1% AAFA+9% corn oil, 2% AAFA+8% corn oil or 3% AAFA+7% corn oil. Two cages (10 mice) were designated to consume each diet. All mice were weighed three times weekly throughout the experiment.
Mice consumed the diet for 2 weeks then treatment with CPT-11 commenced for half of the mice (1 cage of 5 mice) on each diet. CPT-11 was administered at 60 mg/kg body weight, IV in a lateral tail vein, once each four days for 2 weeks. Control mice received an equivalent volume of the CPT-11 vehicle.

[2] = Blood counts: WBC, RBC, hematocrit (Example 1); format: in vivo; details: Swiss mice treated with CPT-11; AAFA prior to and during CPT-11
Description: (§1) Mice were killed 24 hours after the last CPT-11 treatment. At necropsy, mice were weighed, anesthesized and blood was drawn via cardiac puncture. Peripheral blood was placed in an EDTA-containing tube and sent to Laboratory Animal Resources for complete blood counts. The liver, spleen, testes and kidneys were removed, weighed, then part of each organ was fixed in Omnifix® and a part was quick frozen in liquid nitrogen. The brain was removed and frozen in liquid nitrogen. The colon was resected, split open longitudinally and placed serosal side down on a card. Feces were removed from the colon, placed in a tared pan and weighed, then placed in a 100° C. vacuum oven for drying to constant weight. The colon and a section of duodenum were fixed in Omnifix®. The fixed colon and duodenum were oriented in cassettes then processed to paraffin blocks. Paraffin sections were cut 4 μm thick, histological slides of the colon and duodenum were prepared and stained with H & E or periodic acid-Schiff stain.

[3] = Liver weight as percent of body weight (Example 1); format: in vivo; details: Swiss mice treated with CPT-11; compared with mice not treated with CPT-11
Description: as §1
The weight of the liver was expressed as a percent of body weight. […] Thus, the treatment returned the values to control (no CPT-11 treatment) group values.

duodenum crypts = experiment: Apoptotic figures in the duodenum (Example 1); format: in vivo; details: Swiss mice, CPT-11 60 mg/kg IV; two way ANOVA
Description: as §1
The number of apoptotic cells found in 10 complete, midaxially sectioned duodenum crypts was counted as an indication of intestinal damage. […] Thus, the treatment helped return the values closer to control (no CPT-11 treatment) group values.

[4] = cited from earlier work
[5] = Fecal water content (Example 1); format: in vivo; details: Swiss mice treated with CPT-11 60 mg/kg IV; compared with mice not treated with CPT-11; not significant by ANOVA
Description: as §1
The initial wet weight and final constant weight of the dried feces was used to calculate the % of water in the feces of each mouse as an assay of intestinal function. […] Thus, the treatment helped return the values closer to control (no CPT-11 treatment) group values.

[6] = tested on: peripheral blood erythrocytes; experiment: Micronuclei and polychromataphilic erythrocytes in peripheral blood; format: in vivo; details: Swiss mice treated with CPT-11; compared with mice that did not receive CPT-11
Description: After completion of blood counts, a thin smear of peripheral blood was made on a microscope slide, the smear was air-dried and was then stained for 5 minutes with 0.01 mg/ml acridine orange in phosphate buffered saline (pH 7.0). Micronuclei and polychomataphilic erythrocytes (PCE) were identified on the acridine orange stained smears of peripheral blood. Using fluorescent microscopy and a 100X oil objective, the mature erythrocytes, lacking either DNA or RNA are green, the RNA containing PCE are reddish and the DNA containing micronuclei are bright yellow. Fields containing a single layer of erythrocytes were identified. At least 8 standard fields (300, 400 or 500 cells) were identified on each slide and the number or micronuclei or PCEs were counted and recorded.

[7] = tested on: A549 human lung cancer xenografts; experiment: Growth rate of A549 xenografts in nude mice (Example 3); format: in vivo
Description: A549 human lung cancer cells (American Type Culture Collection, Rockville, Md.) were cultured for injection in nude mice. The culture medium was an enriched L15:SMEM base media supplemented with other factors as described previously.
Twenty five male nude mice were allowed to acclimate for one week then were inoculated with tumor cells. The mice were housed under aseptic conditions (positive air pressure in a designated nude mouse room, cages, bedding, water and food were sterilized, cages had microisolator tops) in a temperature (24° C.) and light controlled (12 h light per day) room. All mouse handling was carried out under a laminar flow hood. Our Institutional Animal Care and Use Committee approved all animal use and handling before commencing the experiment. The animal care facilities are accredited by the American Association for the Accreditation of Laboratory Animal Care. Experimental Design-Cultured A549 cells were harvested, rinsed then suspended in serum-free L15:SMEM culture medium. Cells in suspension were counted using a hemocytometer and the cell count was adjusted to […]. The suspension was kept well mixed during the time of injection. […]
Tumor lengths and widths and body weights were measured three times weekly. […] Tumor sizes were calculated using the formula for the volume of a prolate spheroid, […]

[8] = patients or other mammals treated with CPT-11

In the case of `CCc1c2c(nc3ccc(OC(=O)N4CCC(N5CCCCC5)CC4)cc13)-c1cc3c(c(=O)n1C2)COC(=O)[C@]3(O)CC` [CPT-11, irinotecan hydrochloride], the coat quality (Coat quality (Example 1)) is reported as “scruffy”, the “weight gained during the time of CPT-11 treatment” value [1] is reported as “not significantly different” and the hematocrit [2] is reported as “significantly decreased”. For the same compound, the “red blood cell count” value [2] was “significantly decreased”, the “white blood cell count” value [2] was “significantly decreased” and the “liver weight as percent of body weight” value [3] was “significantly larger”. For the same compound, the “number of apoptotic cells in 10 duodenum crypts” value (duodenum crypts) was “significantly increased”, the patients with anemia [4, 8] was 67% and the patients with leukopenia [4, 8] was 91%. For the same compound, the “patients reporting asthenia (tiredness or weakness)” value ([4]; side effect of CPT-11 treatment) was roughly 90%, the “mean fecal water content (% of water in the feces)” value [5] was “higher” and the “micronuclei (MN) in the peripheral blood” value [6] was “significantly higher”. For the same compound, the “polychromataphilic erythrocytes (PCE) in the peripheral blood” value [6] was “significantly higher”.

With `COc1cccc2c1C(=O)c1c(O)c3c(c(O)c1C2=O)C[C@@](O)(C(=O)CO)C[C@@H]3O[C@H]1C[C@H](N)[C@H](O)[C@H](C)O1` [DOX, doxorubicin] the “growth of A549 tumors” value ([7]; mice consuming corn oil, treated with DOX) was “halted the growth”.

With ferric citrate [iron] the “effect of supplemental iron on A549 tumor growth” value ([7]; mice fed corn oil, supplemental iron and DOX) was “counteracted the growth inhibitory effect”.
